Data published in US12378189B2, “Multi-aziridine compound” (priority 2020, dated 2025).

Experiments:
[1] = system: Rtkn-GFP reporter in mouse embryonic stem (mES) cells; assay: ToxTracker genotoxicity assay, Rtkn-GFP reporter induction;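 also: GFP reporter signal quantified solely in intact single cells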
Protocol: (§1) The genotoxicity can be measured by the ToxTracker® assay (Toxys, Leiden, the Netherlands) as further described herein.
(§2) Genotoxicity of examples and comparatives was evaluated by the ToxTracker® assay (Toxys, Leiden, the Netherlands). The ToxTracker assay is a panel of several validated Green Fluorescent Protein (GFP)-based mouse embryonic stem (mES) reporter cell lines that can be used to identify the biological reactivity and potential carcinogenic properties of newly developed compounds in a single test. This methodology uses a two step-approach.
(§3) In the first step a dose range finding was performed using wild-type mES cells (strain B4418). 20 different concentrations for each compound was tested, starting at 10 mM in DMSO as highest concentration and nineteen consecutive 2-fold dilutions.
(§4) Genotoxicity was evaluated at 10, 25 and 50% cytotoxicity in absence and presence of rat S9 liver extract-based metabolizing systems (aroclor1254-induced rats, Moltox, Boone, NC, USA). The independent cell lines were seeded in 96-well cell culture plates, 24 h after seeding the cells in the 96-well plates, fresh ES cell medium containing the diluted test substance was added to the cells. For each tested compound, five concentrations are tested in 2-fold dilutions. The highest sample concentration will induce significant cytotoxicity (50-70%). In case of no or low cytotoxicity, 10 mM or the maximum soluble mixture concentration is used as maximum test concentration. Cytotoxicity is determined by cell count after 24 h exposure using a Guava easyCyte 10HT flow cytometer (Millipore).
(§5) GFP reporter induction is always compared to a vehicle control treatment.
(§6) All compounds were tested in at least three completely independent repeat experiments. Positive reference treatment with cisplatin (DNA damage) were included in all experiments. Metabolic was evaluated by addition of S9 liver extract. Cells are exposed to five concentrations of the test compound in the presence of S9 and required co-factors (RegenSysA+B, Moltox, Boone, NC, USA) for 3 h. After washing, cells are incubated for 24 h in fresh ES cell medium. Induction of the GFP reporters is determined after 24 h exposure using a Guava easyCyte 10HT flow cytometer (Millipore). Only GFP expression in intact single cells is determined. Mean GFP fluorescence and cell concentrations in each well is measured, which is used for cytotoxicity assessment. Data was analyzed using ToxPlot software (Toxys, Leiden, the Netherlands). The induction levels reported are at compound concentrations that induce 10%, 25% and 50% cytotoxicity after 3 h exposure in the presence of S9 rat liver extract and 24 h recovery or alternatively after 24 h exposure when not in the presence of S9 rat liver extract.

[2] = system: Bscl2-GFP and Rtkn-GFP reporters in mouse embryonic stem (mES) cells; assay: ToxTracker genotoxicity assay, overall conclusion from Bscl2-GFP and Rtkn-GFP; conditions: positive: >= 2-fold induction at one of 10, 25, 50% cytotoxicity, with or without S9; not genotoxic: <= […] at all
Protocol: This methodology uses a two step-approach.
Metabolic was evaluated by addition of S9 liver extract. […] Only GFP expression in intact single cells is determined.

[3] = system: Bscl2-GFP reporter in mouse embryonic stem (mES) cells; assay: ToxTracker genotoxicity assay, Bscl2-GFP reporter induction
Protocol: as §1, §2, §3, §4, §5, §6

[4] = with S9 rat liver extract, concentration inducing 10% cytotoxicity, 3 h exposure, 24 h recovery
[5] = with S9 rat liver extract, concentration inducing 25% cytotoxicity, 3 h exposure, 24 h recovery
[6] = with S9 rat liver extract, concentration inducing 50% cytotoxicity, 3 h exposure, 24 h recovery
[7] = without S9 rat liver extract, concentration inducing 10% cytotoxicity, 24 h exposure
[8] = without S9 rat liver extract, concentration inducing 25% cytotoxicity, 24 h exposure
[9] = without S9 rat liver extract, concentration inducing 50% cytotoxicity, 24 h exposure

Compound | Rtkn induction level [1, 4] [fold] | Rtkn induction level [1, 5] [fold] | Rtkn induction level [1, 6] [fold] | Rtkn induction level [1, 7] [fold] | Rtkn induction level [1, 8] [fold] | Rtkn induction level [1, 9] [fold] | Genotoxicity test result (conclusion) [2] | Bscl 2 induction level [3, 4] [fold] | Bscl 2 induction level [3, 5] [fold] | Bscl 2 induction level [3, 6] [fold] | Bscl 2 induction level [3, 7] [fold] | Bscl 2 induction level [3, 8] [fold] | Bscl 2 induction level [3, 9] [fold]
CCCCOCC(CN1CC1)OC(=O)NCCCCCC/N=c1\oc(=O)n(CCCCCCNC(=O)OC(COCCCC)CN2CC2)c(=O)n1CCCCCCNC(=O)OC(COCCCC)CN1CC1 (stereo not shown) [Ex. 5] | 1.0 | 0.9 | 1.0 | 1.0 | 1.1 | 1.0 | non-genotoxic |  |  |  |  |  | 
CC(CN1CC1)OC(=O)NCCCCCCn1c(=O)n(CCCCCCNC(=O)OC(C)CN2CC2)c(=O)n(CCCCCCNC(=O)OC(C)CN2CC2)c1=O (stereo not shown) [Comp. Ex. 3] | 1.3 | 2.1 | 2.2 | 1.3 | 1.8 | 1.9 | genotoxic |  |  |  |  |  | 
CCCCCCCCCC(=O)OCC(CN1CC1)OC(=O)NCCCCCCn1c(=O)n(CCCCCCNC(=O)OC(COC(=O)CCCCCCCCC)CN2CC2)c(=O)n(CCCCCCNC(=O)OC(COC(=O)CCCCCCCCC)CN2CC2)c1=O (stereo not shown) [Ex. 3] | 1.3 | 1.5 | 1.5 | 1.3 | 1.5 | 1.5 | non-genotoxic | 1.1 | 1.2 | 1.2 | 1.1 | 1.2 | 1.4
CCCCOCC(CN1CC1)OC(=O)NCCCCCCn1c(=O)n(CCCCCCNC(=O)OC(COCCCC)CN2CC2)c(=O)n(CCCCCCNC(=O)OC(COCCCC)CN2CC2)c1=O (stereo not shown) [Ex. 1] | 1.0 | 1.1 | 1.1 | 1.0 | 1.0 | 0.9 | non-genotoxic |  |  |  |  |  | 
CCCCOCC(CN1CC1)OC(=O)NC1CCC(CC2CCC(NC(=O)OC(COCCCC)CN3CC3)CC2)CC1 (stereo not shown) [Comp. Ex 4] | 1.1 | 1.6 | 1.9 | 1.2 | 1.5 | 2.1 | genotoxic |  |  |  |  |  | 
O=C(CCN1CC1)OCC(CO)(COC(=O)CCN1CC1)COC(=O)CCN1CC1 [Comp Ex 5, pentaerythritol tris(3-(1-aziridinyl)propionate)] |  |  |  |  |  |  | genotoxic |  |  |  |  |  | 
O=C(NCCCCCCn1c(=O)n(CCCCCCNC(=O)OCCN2CC2)c(=O)n(CCCCCCNC(=O)OCCN2CC2)c1=O)OCCN1CC1 [Comp. Ex. 2] | 2.0 | 3.4 | 3.0 | 1.7 | 2.4 | 2.8 | genotoxic |  |  |  |  |  | 
